Measured values: US8211916B2, “N- and O-substituted 4-[2-(diphenylmethoxy)-ethyl]-1-[(phenyl)methyl]piperidine analogs and methods of treating CNS disorders therewith” (Wayne State University, priority 2000, dated 2012)
Read-outs that look alike come from different tables or passages of the source.

Legend:
rat SERT = biological target: T1, rat SERT (Rattus norvegicus, UniProt P31652); assay: Rat SERT binding, [3H]citalopram, striatal membranes
T1 construct: from tissue; host or cells: rat striatum (membranes)
Protocol: (§2) Briefly, rat striatal membranes were incubated with radioligand and inhibitor for 2 h on ice in a sodium phosphate buffer at a final Na^+ concentration of 30 nM, pH 7.4, at room temperature. The assays were terminated by filtration through glass fiber filtermats (Wallac, Inc., Gaithersburg, Md.), presoaked in 0.05% (v/v) polyethyleneimine, with a MACH3-96 Tomtec harvester (Wallac, Inc.). Filters were assayed for radioactivity in a Microbeta Plus liquid scintillation counter (Wallac, Inc.).

[1] = biological target: T2, Norepinephrine (NET) Transporter (Rattus norvegicus, UniProt Q63380); assay: NET binding, [3H]nisoxetine
T2 construct: and norepinephrine Transporters in Rat Striatum; from tissue

[2] = Stability of free base on storage; type: physicochemical; conditions: room temperature
Protocol: To a solution of oxalyl chloride ([…], […]) in CH2Cl2 (3 mL) cooled to −78° C. was added dropwise 108 mg dimethylsulfoxide (1.38 mmol, 3 equiv). The mixture was stirred for 10 min and a solution of 236 mg racemic trans-3-hydroxy-4-[2-(diphenylmethoxy)ethyl]-1-[(4-fluorophenyl)methyl]piperidine (0.46 mmol) in CH2Cl2 (1 mL) was added dropwise. […] […]; H, 5.92; N, 2.76.

rat DAT = rat DAT (Rattus norvegicus, UniProt P23977); assay: Rat DAT binding, [3H]Win 35,428, striatal membranes; conditions: for NET/DAT / SERT/DAT: Table 4, binding selectivity
Protocol: as §2

[3] = biological target: T3, dopamine transporter (DAT) (Rattus norvegicus, UniProt P23977); conditions: for [3H]DA/DAT Binding: Table 4, uptake/binding ratio
[4] = biological target: T3, dopamine transporter (DAT); assay: biochemical
DAT = biological target: T4, DAT (Rattus norvegicus, UniProt P23977); assay: Uptake of [3H]DA by DAT, rat striatum; type: biochemical; conditions: [3H]DA uptake, rat striatum; read-out: Ki (DAT), inhibition of DA uptake
T4 construct: from tissue; host or cells: rat striatum
Excerpt: (§1) Transporter assays. The affinity of test compounds in binding to rat DAT and in inhibiting monoamine uptake was monitored as described by us previously. […] Rat cerebral cortex was used for assessing uptake of [^3H]serotonin by SERT and hippocampus for uptake of [^3H]NE by NET. […] At lease five triplicate concentrations of each test compound were studied, spaced evenly around the IC50 value. The latter was estimated by nonlinear computer curve-fitting procedures and converted to Ki with the Cheng-Prusoff equation.

NET = biological target: T5, NET (Rattus norvegicus, UniProt Q63380); assay: Uptake of [3H]NE by NET, rat hippocampus; type: biochemical; conditions: [3H]NE uptake, read-out: Ki (NET), inhibition of NE uptake
T5 construct: from tissue; host or cells: rat hippocampus
Excerpt: as §1

[5] = Table 3, read-out: NET, IC50, nM [3H]nisoxetine

T1 sequence (P31652 whole entry): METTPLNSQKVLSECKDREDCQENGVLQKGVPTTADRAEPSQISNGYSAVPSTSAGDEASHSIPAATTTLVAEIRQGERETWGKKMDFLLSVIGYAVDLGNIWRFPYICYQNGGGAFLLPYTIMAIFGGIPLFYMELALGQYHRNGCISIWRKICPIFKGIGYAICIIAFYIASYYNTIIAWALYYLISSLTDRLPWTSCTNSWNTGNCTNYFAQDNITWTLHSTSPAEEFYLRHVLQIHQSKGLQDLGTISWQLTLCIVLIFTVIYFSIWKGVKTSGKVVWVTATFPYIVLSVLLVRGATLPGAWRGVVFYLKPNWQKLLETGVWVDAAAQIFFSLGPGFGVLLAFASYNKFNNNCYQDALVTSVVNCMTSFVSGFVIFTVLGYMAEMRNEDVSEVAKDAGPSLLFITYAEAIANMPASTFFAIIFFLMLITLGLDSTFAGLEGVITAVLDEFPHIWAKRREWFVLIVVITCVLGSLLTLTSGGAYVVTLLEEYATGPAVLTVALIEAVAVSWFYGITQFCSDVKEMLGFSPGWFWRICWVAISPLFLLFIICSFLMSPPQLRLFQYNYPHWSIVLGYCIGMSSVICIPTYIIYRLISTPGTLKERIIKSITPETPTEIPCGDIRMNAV
T2 sequence (Q63380 1-617): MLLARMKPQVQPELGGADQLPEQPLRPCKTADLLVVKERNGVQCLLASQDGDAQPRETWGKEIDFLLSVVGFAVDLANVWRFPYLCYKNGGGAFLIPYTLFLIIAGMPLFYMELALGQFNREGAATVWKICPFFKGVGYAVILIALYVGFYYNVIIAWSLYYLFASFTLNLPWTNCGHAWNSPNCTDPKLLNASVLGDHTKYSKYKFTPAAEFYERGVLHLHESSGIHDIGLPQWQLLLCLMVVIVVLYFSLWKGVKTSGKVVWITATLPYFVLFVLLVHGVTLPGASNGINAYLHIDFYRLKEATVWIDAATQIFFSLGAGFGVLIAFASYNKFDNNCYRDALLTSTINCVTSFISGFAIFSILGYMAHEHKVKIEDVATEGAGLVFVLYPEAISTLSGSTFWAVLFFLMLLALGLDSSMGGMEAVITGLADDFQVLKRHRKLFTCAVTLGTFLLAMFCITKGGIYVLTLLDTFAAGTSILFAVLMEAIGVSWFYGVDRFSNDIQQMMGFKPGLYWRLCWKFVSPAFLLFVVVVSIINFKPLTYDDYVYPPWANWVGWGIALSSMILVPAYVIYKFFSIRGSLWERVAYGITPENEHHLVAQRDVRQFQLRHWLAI
Chain of rat DAT (P23977 whole entry): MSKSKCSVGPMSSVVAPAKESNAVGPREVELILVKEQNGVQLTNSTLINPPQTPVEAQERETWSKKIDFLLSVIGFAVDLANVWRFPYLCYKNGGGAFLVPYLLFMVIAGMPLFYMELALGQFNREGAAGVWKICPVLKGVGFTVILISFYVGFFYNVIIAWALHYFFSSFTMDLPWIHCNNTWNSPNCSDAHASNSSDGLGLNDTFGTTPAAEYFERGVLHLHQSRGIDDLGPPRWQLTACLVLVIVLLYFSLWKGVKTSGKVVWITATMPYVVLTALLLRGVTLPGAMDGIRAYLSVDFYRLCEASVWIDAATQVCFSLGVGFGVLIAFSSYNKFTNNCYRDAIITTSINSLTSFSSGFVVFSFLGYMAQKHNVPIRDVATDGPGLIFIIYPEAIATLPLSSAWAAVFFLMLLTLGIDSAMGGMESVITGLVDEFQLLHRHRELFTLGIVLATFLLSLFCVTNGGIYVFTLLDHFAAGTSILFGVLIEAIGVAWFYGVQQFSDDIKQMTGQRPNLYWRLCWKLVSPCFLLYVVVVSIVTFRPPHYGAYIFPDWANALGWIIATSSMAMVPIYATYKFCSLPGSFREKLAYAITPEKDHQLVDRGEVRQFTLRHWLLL
T3 sequence (P23977 whole entry): as above
T5 sequence (Q63380 1-617): as the sequence (Q63380 1-617) above
T4 sequence (P23977 whole entry): as the sequence (P23977 whole entry) above

O=C1CN(Cc2ccc(F)cc2)CCC1CCOC(c1ccccc1)c1ccccc1 (racemic) [Example 18, racemic 3-Keto-4-[2-(diphenylmethoxy)ethyl]-1-[(4-fluorophenyl)methyl]piperidine]
IC50 (rat SERT): 7750 nM
IC50 ([1]; Table 5, rat striatum, read-out: NET, IC50, nM [3H]nisoxetine): 6300 nM
stability of the free base [2]: decomposes at room temperature
IC50 (rat DAT): 99 ± 18 nM

Fc1ccc(CNC2CCC(C(c3ccccc3)c3ccccc3)NC2)cc1 (racemic) [(±)-7a, 2-diphenylmethyl-5-(4-fluorobenzylamino)piperidine]
IC50 (rat SERT): 2810 nM
IC50 [1, 5]: 1350 nM
[3H]DA/DAT Binding [3]: 0.03
IC50 [4]: 28.9 ± 2.5 nM
IC50 (rat DAT): 30 ± 0.5 nM
SERT/DAT selectivity ratio (rat DAT): 93.7
NET/DAT (rat DAT): 44.9
SERT/DAT (rat DAT): 93.7

Fc1ccc(CN[C@H]2CC[C@H](C(c3ccccc3)c3ccccc3)NC2)cc1 (racemic) [(±)-7b, trans-2-diphenylmethyl-5-(4-fluorobenzylamino)piperidine]
IC50 (rat SERT): 1330 nM
IC50 [1, 5]: 4470 nM
[3H]DA/DAT Binding [3]: 0.5
IC50 [4]: 106 ± 10 nM
IC50 (rat DAT): 212 ± 20 nM
SERT/DAT selectivity ratio (rat DAT): 6.28
NET/DAT (rat DAT): 21
SERT/DAT (rat DAT): 6.28

O[C@H](CN[C@H]1CC[C@@H](C(c2ccccc2)c2ccccc2)NC1)c1ccc(F)cc1 [Example 4b, (S)-2-[(3S,6S)-6-benzhydrylpiperidin-3-ylamino)-1-(4-fluorophenyl)ethanol]
Ki (DAT): 152 nM
Ki (NET): 306 nM

Fc1ccc(CN2CCC(CNCC(c3ccccc3)c3ccccc3)CC2)cc1 [Example 11, 4-[[2-(Diphenyl)ethyl]aminomethyl]-1-[(4-fluorophenyl)methyl]piperidine]
IC50 (rat SERT; Table 1, read-out: SERT, IC50): 137 ± 45.6 nM
affinity for the SERT (rat SERT; in words): moderate affinity
IC50 ([1]; Table 1, read-out: NET, IC50): 1110 nM
[3H]DA/DAT Binding [3]: 2.5
IC50 ([3]; read-out: [3H]DA Inhibition, IC50, Table 2, rat synaptosome tissue): 49.6 ± 7.2 nM
NET/DAT (rat DAT): 5.6
SERT/DAT (rat DAT): 6.9
affinity for the DAT (rat DAT; in words): strong affinity
IC50 (rat DAT; read-out: DAT, IC50, Table 1): 19.7 ± 1.4 nM

O[C@@H](CN[C@H]1CC[C@@H](C(c2ccccc2)c2ccccc2)NC1)c1ccc(F)cc1 [Example 4a, (R)-2-[(3S,6S)-6-benzhydrylpiperidin-3-ylamino)-1-(4-fluorophenyl)ethanol]
Ki (DAT): 236 nM
Ki (NET): 1440 nM

Fc1ccc(CN2CCC(CNOC(c3ccccc3)c3ccccc3)CC2)cc1 [Example 7, 4-[((2-Diphenylmethoxy)amino)methyl]-1-[(4-fluorophenyl)methyl]piperidine]
IC50 (rat SERT; Table 1, read-out: SERT, IC50): 626 ± 33 nM
IC50 [1]: 691 ± 68 nM
IC50 [4]: 16.6 ± 2.8 nM
IC50 (rat DAT; read-out: DAT, IC50, Table 1): 34.4 ± 4.2 nM
